Here are results for 36 compounds from patent EP0661271B1, “AZEPINE DERIVATIVES, PRODUCTION THEREOF, AND USE THEREOF AS SIGMA-RECEPTOR LIGANDS” (Asahi Kasei Kogyo Kabushiki Kaisha, priority 1992, dated 1994).

One may read the Kd as a measure of binding affinity in units of concentration. For orientation: Ki means a measure of affinity in units of concentration, obtained from inhibition or displacement.

Test [1] relates to apomorphine induced climbing. As to the kind of experiment: Suppressive activity on apomorphine induced climbing in mice. Format: in vivo. The conditions noted are these: 30 minutes before apomorphine 2 mg/kg s.c., ICR mice; for Suppression rate (mg/kg, p.o): apomorphine single administered group = 100 %. On the procedure:
Administering dopamine agonist, apomorphine in mouse resulted various abnormal movings, and especially, a climbing the cage has been known to be correlated with human schizophrenia.
Compounds of the present invention were administered orally or intraperitoneally in ICR mice, male (Charles River Corp.), and after 30 minutes apomorphine 2 mg/kg was administered subcutaneously. Climbing behaviors of 3 minutes after 20-23 minutes of apomorphine administration were observed. Climbing behavior was observed by entering the mice in stainless steel made wire netting cage and measuring a time remaining above the upper part of half part of the cage at observing. A climbing time of apomorphine single administered group is set as 100 % and shortened time by administering the drug is shown in suppression rate.

The next test concerns the target σ-receptor. As to the kind of experiment: Binding activity for σ-receptor, [3H]DTG displacement in rat brain membrane preparation. Also noted: species or system Sprague-Dowley rat. The note with it: for Ki: rat whole brain (except cerebella) membrane, [3H]DTG 3 nM, 25°C 60 minutes, compounds tested as hydrochloride, read-out: Sigma [^3H] DTG Ki.

With `CN(C)CCCN1c2ccccc2Sc2ccc(Cl)cc21` [Chlorpromazine, reference compound], the “Suppression (mg/kg, i.p.)” value in test [1] (1 mg/kg i.p.) is listed as 40 % (1).

For `Cc1ccccc1NC(=N)Nc1ccccc1C` [DTG, 1,3-di(2-tolyl) guanidine, reference compound], the Kd on σ-receptor (radioligand constant used to calculate Ki, read-out: Kd, affinity of radioactive ligand for receptor) is 10.6 nM.

With `CC1(C)C2CC[C@]1(C)CN(CCC13CC4CC(CC(C4)C1)C3)C2` [Example 1, (1S)-3-[2-(1-adamantyl)ethyl]-1,8,8-trimethyl-3-azabicyclo [3.2.1] octane], the Ki at σ-receptor was 0.26 nM. The “Suppression rate (mg/kg, p.o)” value in test [1] (30 mg/kg p.o.) is recorded as 37 % (30).

As to `CC1(C)C2CC[C@]1(C)CN(CCC1CCCC1)C2` [Example 3, (1S)-3-(2-cyclopentylethyl)-1,8,8-trimethyl-3-azabicyclo[3.2.1] octane], the Ki on σ-receptor worked out at 0.53 nM.

In the case of `CC1(C)C2CC[C@]1(C)CN(CCC1CCCCC1)C2` [Example 4, (1S)-3-(2-cyclohexylethyl)-1,8,8-trimethyl-3-azabicyclo[3.2.1] octane], the Ki on σ-receptor was found to be 0.28 nM.

On to `CC1(C)C2CC[C@@]1(C)CN(CCC1CCCCC1)C2` [Example 6, (1R)-3-(2-cyclohexylethyl)-1,8,8-trimethyl-3-azabicyclo[3.2.1] octane], for which the Ki on σ-receptor came out at 0.16 nM.

Consider `CC1(C)C2CC[C@]1(C)CN(CCC1CCCCCC1)C2` [Example 7, (1S)-3-(2-cycloheptylethyl)-1,8,8-trimethyl-3-azabicyclo[3.2.1] octane], for which the Ki on σ-receptor was 0.57 nM.

For the compound `CC1(C)C2CC[C@]1(C)CN(CCC1CCCCCCC1)C2` [Example 8, (1S)-3-(2-cyclooctylethyl)-1,8,8-trimethyl-3-azabicyclo[3,2,1] octane], the Ki on σ-receptor is 0.5 nM.

As to `CC1(C)C2CC[C@]1(C)CN(CCCCC1CCCCC1)C2` [Example 9, (1S)-3-(4-cyclohexyl-1-butyl)-1,8,8-trimethyl-3-azabicyclo[3.2.1] octane], the Ki at σ-receptor turned out to be 3.72 nM.

As for `CC1(C)C2CC[C@]1(C)CN(CCCC1CCCCC1)C2` [Example 10, (1S)-3-(3-cyclohexylpropyl)-1,8,8-trimethyl-3-azabicyclo[3.2.1] octane], the Ki at σ-receptor amounted to 0.92 nM.

Turning to `CC1(C)C2CC[C@]1(C)CN(CC1CCCCC1)C2` [Example 11, (1S)-3-cyclohexylmethyl-1,8,8-trimethyl-3-azabicyclo[3.2.1] octane], the Ki at σ-receptor is 3.63 nM.

With `CC1(C)C2CC[C@@]1(C)CN(CC1CCCCC1)C2` [Example 12, (1R)-3-cyclohexylmethyl-1,8,8-trimethyl-3-azabicyclo[3.2.1] octane], the Ki at σ-receptor amounted to 2.53 nM.

As for `CC1(C)C2CC[C@]1(C)CN(C1CCCCC1)C2` [Example 13, (1S)-3-cyclohexyl-1,8,8-trimethyl-3-azabicyclo[3.2.1] octane], the Ki at σ-receptor amounted to 6.37 nM.

As for `CC1(C)C2CC[C@@]1(C)CN(CCC13CC4CC(CC(C4)C1)C3)C2` [Example 14, (1R)-3-[2-(1-adamantyl)ethyl]-1,8,8-trimethyl-3-azabicyclo[3.2.1] octane], the Ki at σ-receptor turned out to be 0.32 nM.

Consider `CC1(C)C2CC[C@]1(C)CN(CCC1C3CC4CC(C3)CC1C4)C2` (stereo partly drawn) [Example 15, (1S)-3-[2-(2-adamantyl)ethyl]-1,8,8-trimethyl-3-azabicyclo[3.2.1] octane], for which, on σ-receptor, the Ki was 0.32 nM. Also, the “Suppression rate (mg/kg, p.o)” value in test [1] (10 mg/kg p.o.) was 78 % (10).

In the case of `CC1(C)C2CC[C@@]1(C)CN(CCC1C3CC4CC(C3)CC1C4)C2` (stereo partly drawn) [Example 16, (1R)-3-[2-(2-adamantyl)ethyl]-1,8,8-trimethyl-3-azabicyclo [3.2.1] octane], the Ki at σ-receptor worked out at 0.41 nM. In test [1] (30 mg/kg p.o.), the “Suppression rate (mg/kg, p.o)” value is on record as 79 % (30).

In the case of `CC1CCC(CCN2CC3CC[C@](C)(C2)C3(C)C)CC1` (stereo partly drawn) [Example 18, (1S)-3-[2-(4-methylcyclohexyl)ethyl]-1,8,8-trimethyl-3-azabicyclo [3.2.1] octane], on σ-receptor, the Ki came out at 2.23 nM.

In the case of `CC12CC3CC(C1)CC(CCN1CC4CC[C@](C)(C1)C4(C)C)(C3)C2` [Example 19, (1S)-3-[2-(3-methyl-1-adamantyl)ethyl]-1,8,8-trimethyl-3-azabicyclo [3.2.1] octane], on σ-receptor, the Ki worked out at 0.87 nM.

On to `CC1(C)[C@H]2CC[C@]1(C)CN(CC13CC4CC(CC1C4)C3)C2` [Example 20, (1S)-3-(3-noradamantylmethyl)-1,8,8-trimethyl-3-azabicyclo[3.2.1] octane], for which the Ki on σ-receptor was 4.16 nM.

For `CC1(C)C2CC[C@]1(C)CN(CCC1C3CCCC1CCC3)C2` (stereo partly drawn) [Example 21, (1S)-3-[2-(bicyclo [3.3.1]nonan-9-yl)-1-ethyl]-1,8,8-trimethyl-3-azabicyclo [3.2.1] octane], on σ-receptor, the Ki is 0.88 nM. The “Suppression rate (mg/kg, p.o)” value in test [1] (30 mg/kg p.o.) was 54 % (30).

As for `CC1(C)C2CC[C@]1(C)CN(CCC1C3CC4CC1CC(O)(C4)C3)C2` (stereo partly drawn) [Example 23, (1S)-3-[2-(5-hydroxy-2-adamantyl)ethyl]-1,8,8-trimethyl-3-azabicyclo [3.2.1] octane], the Ki at σ-receptor amounted to 0.44 nM. The “Suppression rate (mg/kg, p.o)” value in test [1] (10 mg/kg p.o.) is 69 % (10).

Take `COC12CC3CC(C1)C(CCN1CC4CC[C@](C)(C1)C4(C)C)C(C3)C2` (stereo partly drawn) [Example 24, (1S)-3-[2-(5-methoxy-2-adamantyl)ethyl]-1,8,8-trimethyl-3-azabicyclo [3.2.1] octane]: the Ki on σ-receptor is 0.67 nM. In test [1] (10 mg/kg p.o.), the “Suppression rate (mg/kg, p.o)” value is on record as 78 % (10).

With `CC1(C)C2CC[C@]1(C)CN(CCC1C3CC4CC1CC(Cl)(C4)C3)C2` (stereo partly drawn) [Example 25, (1S)-3-[2-(5-chloro-2-adamantyl)ethyl]-1,8,8-trimethyl-3-azabicyclo [3.2.1] octane], the Ki on σ-receptor was found to be 0.58 nM. Further, the “Suppression rate (mg/kg, p.o)” value in test [1] (30 mg/kg p.o.) was 43 % (30).

Turning to `CC1(C)C2CC[C@]1(C)CN(CCC1C3CC4CC(C3)C(O)C1C4)C2` (stereo partly drawn) [Example 27, (1S)-3-[2-(4-hydroxy-2-adamantyl)ethyl]-1,8,8-trimethyl-3-azabicyclo [3.2.1] octane], the inhibitory constant (Ki) on σ-receptor turned out to be 1.6 nM.

As to `CC1(C)C2CC[C@]1(C)CN(CCC1C3CC4CC(C3)C(c3ccccc3)C1C4)C2` (stereo partly drawn) [Example 28, (1S)-3-[2-(4-phenyl-2-adamantyl)ethyl]-1,8,8-trimethyl-3-azabicyclo [3.2.1] octane], in test [1] (30 mg/kg p.o.), the “Suppression rate (mg/kg, p.o)” value was 74 % (30).

For `CC1(C)C2CC[C@@]1(C)CN(CCc1cccc3ccccc13)C2` [Example 45, (1R)-3-[2-(1-naphthyl)ethyl]-1,8,8-trimethyl-3-azabicyclo [3.2.1] octane], the Ki at σ-receptor was 2.22 nM.

In the case of `CC1(C)C2CC[C@@]1(C)CN(CCc1ccc3ccccc3c1)C2` [Example 46, (1R)-3-[2-(2-naphthyl)ethyl]-1,8,8-trimethyl-3-azabicyclo [3.2.1] octane], the Ki on σ-receptor is 8.57 nM. Further, the “Suppression (mg/kg, i.p.)” value in test [1] (10 mg/kg i.p.) was 45 % (10).

`CC1(C)C2CC[C@@]1(C)CN(CCc1ccccn1)C2` [Example 47, (1R)-3-[2-(2-pyridyl)ethyl]-1,8,8-trimethyl-3-azabicyclo [3.2.1] octane]: the Ki on σ-receptor worked out at 16.1 nM.

For the compound `CC1(C)[C@@H]2CC[C@@]1(C)CN(CCc1ccncc1)C2` [Example 48, (1R)-3-[2-(4-pyridyl) ] ethyl-1,8,8-trimethyl-3-azabicyclo [3.2.1] octane], the Ki on σ-receptor is 15.1 nM.

Turning to `CC1(C)[C@H]2CC[C@]1(C)CN(CCc1cccc3ccccc13)C2` [Example 49, (1S)-3-[2-(1-naphtyl)ethyl]-1,8,8-trimethyl-3-azabicyclo-[3.2.1] octane], the Ki at σ-receptor was determined as 9 nM.

Take `CC1(C)C2CC[C@]1(C)CN(CCc1ccc3ccccc3c1)C2` [Example 50, (1S)-3-[2-(2-naphthyl)ethyl]-1,8,8-trimethyl-3-azabicyclo [3.2.1] octane]: the Ki on σ-receptor is 28.3 nM. Moreover, the “Suppression (mg/kg, i.p.)” value in test [1] (1 mg/kg i.p.) was 50 % (1).

On to `CC1(C)C2CC[C@]1(C)CN(CCc1ccccn1)C2` [Example 51, (1S)-3-[2-(2-pyridyl)ethyl]-1,8,8-trimethyl-3-azabicyclo [3.2.1] octane], for which, on σ-receptor, the Ki turned out to be 31.8 nM.

In the case of `CC1(C)C2CC[C@]1(C)CN(CCc1cccnc1)C2` [Example 52, (1S)-3-[2-(3-pyridyl)ethyl]-1,8,8-trimethyl-3-azabicyclo [3.2.1] octane], the Ki on σ-receptor stood at 79.5 nM.

For `CC1(C)C2CC[C@]1(C)CN(CCc1ccncc1)C2` [Example 53, (1S)-3-[2-(4-pyridyl)ethyl]-1,8,8-trimethyl-3-azabicyclo [3.2.1] octane], the Ki on σ-receptor amounted to 21.5 nM.

Turning to `CC1(C)C2CC[C@]1(C)CN(CCc1cccs1)C2` [Example 55, (1S)-3-[2-(2-thienyl)ethyl]-1,8,8-trimethyl-3-azabicyclo [3.2.1] octane], the Ki at σ-receptor is 7.04 nM.

With “(1S)-3-[2-(1-norbornyl)ethyl]-1,8,8-trimethyl-3-azabicyclo [3,2,1] octane [Example 2]”, the inhibition constant Ki on σ-receptor was 0.39 nM.
